Test results reported in patent US8501803B2, “Garcinia derivative, its preparing method and medicinal use” (China Pharmaceutical University, priority 2010, dated 2013).

Columns and labels:
[1] = test system: MCF-7 cells (human breast cancer cells); assay: MTT antiproliferative test on MCF-7 cells; format: cell-based; details: MCF7, 96 h, 4 days culture, MCF-7 human breast cancer cells, read-out: MCF-7 cell IC50
Method: (§1) Test method: The cells of log phase are cultivated in the culture plate with 96 pores, and each pore contains 100 μL of solution (including 1000-1200 tumor cells). The next day, different concentrations of the present compound are added to the treatment groups, each compound contains 4 to 5 dosage groups, and each dosage group contains at least 3 parallel pores. The solvent with an equivalent volume of the said compound is added to the control groups. The said culture plate is then placed in a 5% CO2 incubator, cultured at 37° C., and the culture solution is discharged 4 days later. Next, 200 μL of the 0.2% MTT solution (RPMI1640 preparation) is added to each pore and incubated at 37° C. for 4 hours; the obtained supernatant is discharged; and 150 μL of DMSO is added to each pore so as to dissolve formazane particles. After slightly shaking the mixture, the optical density (OD) is measured by the ELIASA in the conditions of a resulting reference wavelength 450 nm and a detection wavelength 570 nm. The tumor cells treated with solvent are used as control groups, and the inhibition rate of the drugs against the tumor cells and IC50 are calculated according to the following equation. […] The MCF-7 cells are human breast cancer cells and the BGC-823 cells are human gastric carcinoma cells.

[2] = test system: BGC-823 cells (human gastric carcinoma cells); assay: MTT antiproliferative test on BGC-823 cells; format: cell-based; details: 96 h, 4 days culture, BGC-823 human gastric carcinoma cells, read-out: BGC-823 cell IC50
Method: as §1

SMILES: CC(C)=CCC12OC(C)(C)C3CC(C=C4C(=O)c5cc(O)ccc5OC431)C2=O (stereo not drawn)
- melting point: 158 to 159 °C

SMILES: CC(C)=CCC12OC(C)(C)C3CC(C=C4C(=O)c5cccc(O)c5OC431)C2=O (stereo not drawn)
- melting point: 203 to 205 °C

SMILES: CC(C)=CCC12OC(C)(C)C3CC(C=C4C(=O)c5c(O)cccc5OC431)C2=O (stereo not drawn) [CPUY I-1, 3,3a,4,5-tetrahydro-3,3-dimethyl-1-(3-methyl-2-butenyl)-8-hydroxyl-1,5-dimethylene-1H,7H-furan[3,4-d]xanthene-7,13-diketone]
- IC50 [1]: 9.16 µM
- IC50 [2]: 3.59 µM

SMILES: CC(C)=CCC12OC(C)(C)C3CC(C=C4C(=O)c5ccc(O)cc5OC431)C2=O (stereo not drawn) [CPUY I-2, 3,3a,4,5-tetrahydro-3,3-dimethyl-1-(3-methyl-2-butenyl)-10-hydroxyl-1,5-dimethylene-1H,7H-furan[3,4-d]xanthene-7,13-diketone]
- melting point: 197 to 199 °C
- IC50 [1]: 12.4 µM
- IC50 [2]: 17.6 µM

SMILES: CC(C)=CCc1c(O)ccc2c1OC13C(=CC4CC1C(C)(C)OC3(CC=C(C)C)C4=O)C2=O (stereo not drawn) [CPUY I-5, 3,3a,4,5-tetrahydro-3,3-dimethyl-1,11-bis(3-methyl-2-butenyl)-10-hydroxyl-1,5-dimethylene-1H,7H-furan[3,4-d]xanthene-7,13-diketone]
- melting point: 158 to 160 °C
- IC50 [1]: 5.79 µM
- IC50 [2]: 15 µM

SMILES: CC(C)=CCc1c(O)ccc2c1C(=O)C1=CC3CC4C(C)(C)OC(CC=C(C)C)(C3=O)C14O2 (stereo not drawn) [CPUY I-6, 3,3a,4,5-tetrahydro-3,3-dimethyl-1,8-bis(3-methyl-2-butenyl)-9-hydroxyl-1,5-dimethylene-1H,7H-furan[3,4-d]xanthene-7,13-diketone]
- melting point: 138 to 139 °C
- IC50 [1]: 11.9 µM
- IC50 [2]: 21.7 µM

SMILES: CC(C)=CCc1cc2c(cc1O)C(=O)C1=CC3C4CC1(O2)C(=O)C3(CC=C(C)C)OC4(C)C (stereo not drawn) [CPUY I-7, 1,3a,4,11a-tetrahydro-3,3-dimethyl-1,7-bis(3-methyl-2-butenyl)-8-hydroxyl-3H-1,4-a-dimethylene-10H-furan[3,4-b]xanthene-10,12-diketone]
- melting point: 148 to 150 °C
- IC50 [1]: 10.9 µM
- IC50 [2]: 18.2 µM

SMILES: CC(C)=CCc1ccc2c(c1O)OC13C(=CC4CC1C(C)(C)OC3(CC=C(C)C)C4=O)C2=O (stereo not drawn) [CPUY I-8, 3,3a,4,5-tetrahydro-3,3-dimethyl-1,10-bis(3-methyl-2-butenyl)-11-hydroxyl-1,5-dimeth ylene-1H,7H-furan[3,4-d]xanthene-7,13-diketone]
- melting point: 157 to 158 °C
- IC50 [1]: 9.06 µM
- IC50 [2]: 11.3 µM

SMILES: CC(C)=CCC[C@]1(C)C=Cc2c(O)c3c(c(CC=C(C)C)c2O1)O[C@]12C(=C[C@@H]4C[C@H]1C(C)(C)O[C@@]2(C/C=C(/C)C(=O)O)C4=O)C3=O [Gambogic acid, gambogic acid, reference compound]
- IC50 [1]: 2.19 µM
- IC50 [2]: 2.35 µM
